Measurements as given in ChEMBL document CHEMBL3608284, “C4 phenyl aporphines with selective h5-HT(2B) receptor affinity” (Bioorg Med Chem Lett, 2015).

Key:
[1] = target: T1, 5-hydroxytryptamine receptor 2B (Homo sapiens, UniProt P41595); assay: Displacement of [3H]LSD from 5HT2B receptor (unknown origin) at 10 uM
[2] = target: T2, 5-hydroxytryptamine receptor 3A (Homo sapiens) (UniProt P46098); assay: Displacement of [3H]LY278584 from 5HT3 receptor (unknown origin) at 10 uM
T2 sequence (whole entry): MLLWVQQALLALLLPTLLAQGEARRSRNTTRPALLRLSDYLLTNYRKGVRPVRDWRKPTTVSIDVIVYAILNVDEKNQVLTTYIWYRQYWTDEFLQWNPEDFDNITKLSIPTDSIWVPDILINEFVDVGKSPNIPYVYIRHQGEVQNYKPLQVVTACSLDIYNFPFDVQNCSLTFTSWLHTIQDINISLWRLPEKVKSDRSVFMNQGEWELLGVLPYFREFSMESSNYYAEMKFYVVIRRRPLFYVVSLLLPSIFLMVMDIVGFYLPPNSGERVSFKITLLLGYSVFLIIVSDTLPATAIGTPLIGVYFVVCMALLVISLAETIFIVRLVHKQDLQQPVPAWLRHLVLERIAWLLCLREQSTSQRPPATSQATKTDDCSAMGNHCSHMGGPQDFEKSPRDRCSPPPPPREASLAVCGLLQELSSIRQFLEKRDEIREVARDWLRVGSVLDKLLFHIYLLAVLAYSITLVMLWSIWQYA

[3] = target: 5-hydroxytryptamine receptor 5A (Homo sapiens) (UniProt P47898); assay: Displacement of [3H]LSD from 5HT5A receptor (unknown origin) at 10 uM
[4] = target: 5-hydroxytryptamine receptor 2A (Homo sapiens) (UniProt P28223); assay: Displacement of [3H]ketanserin from 5HT2A receptor (unknown origin) at 10 uM
[5] = target: 5-hydroxytryptamine receptor 1D (Homo sapiens) (UniProt P28221); assay: Displacement of [3H]GR125743 from 5HT1D receptor (unknown origin) at 10 uM
[6] = target: T3, 5-hydroxytryptamine receptor 1B (Homo sapiens, UniProt P28222); assay: Displacement of [3H]GR125743 from 5HT1B receptor (unknown origin) at 10 uM
[7] = target: T1, 5-hydroxytryptamine receptor 2B; assay: Displacement of [3H]LSD from 5HT2B receptor (unknown origin)
[8] = target: T4, 5-hydroxytryptamine receptor 2C (Homo sapiens) (UniProt P28335); assay: Displacement of [3H]mesulergine from 5HT2C receptor (unknown origin) at 10 uM
T4 sequence (whole entry): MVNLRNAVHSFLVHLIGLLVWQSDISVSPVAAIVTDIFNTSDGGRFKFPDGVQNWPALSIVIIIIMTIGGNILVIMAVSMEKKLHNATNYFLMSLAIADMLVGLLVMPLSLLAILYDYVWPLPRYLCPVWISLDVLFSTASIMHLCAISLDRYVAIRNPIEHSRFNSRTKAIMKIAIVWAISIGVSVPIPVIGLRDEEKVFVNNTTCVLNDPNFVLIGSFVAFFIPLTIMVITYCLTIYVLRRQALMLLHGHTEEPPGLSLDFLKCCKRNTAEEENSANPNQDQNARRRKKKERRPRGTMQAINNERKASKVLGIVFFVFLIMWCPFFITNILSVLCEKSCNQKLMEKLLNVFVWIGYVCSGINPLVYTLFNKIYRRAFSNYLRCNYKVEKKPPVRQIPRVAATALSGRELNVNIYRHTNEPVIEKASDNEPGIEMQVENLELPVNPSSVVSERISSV

[9] = target: 5-hydroxytryptamine receptor 1E (Homo sapiens) (UniProt P28566); assay: Displacement of [3H]5HT from 5HT1E receptor (unknown origin) at 10 uM
[10] = target: 5-hydroxytryptamine receptor 7 (Homo sapiens) (UniProt P34969); assay: Displacement of [3H]LSD from 5HT7 receptor (unknown origin) at 10 uM
[11] = target: T3, 5-hydroxytryptamine receptor 1B; assay: Displacement of [3H]GR125743 from 5HT1B receptor (unknown origin)
[12] = target: T5, 5-hydroxytryptamine receptor 1A (Homo sapiens) (UniProt P08908); assay: Displacement of [3H]-8-OH-DPAT from 5HT1A receptor (unknown origin) at 10 uM
T5 sequence (whole entry): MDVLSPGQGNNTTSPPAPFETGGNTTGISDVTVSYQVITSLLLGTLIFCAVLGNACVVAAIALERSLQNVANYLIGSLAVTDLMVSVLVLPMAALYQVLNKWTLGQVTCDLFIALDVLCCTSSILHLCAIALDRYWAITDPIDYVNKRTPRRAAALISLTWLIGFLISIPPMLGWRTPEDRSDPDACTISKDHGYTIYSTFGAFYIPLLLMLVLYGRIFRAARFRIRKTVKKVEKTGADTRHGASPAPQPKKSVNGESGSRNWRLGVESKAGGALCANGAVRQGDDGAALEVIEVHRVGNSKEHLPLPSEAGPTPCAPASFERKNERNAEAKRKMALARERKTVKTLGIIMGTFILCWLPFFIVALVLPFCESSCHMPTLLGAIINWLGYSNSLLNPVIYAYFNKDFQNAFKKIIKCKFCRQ

Sequence of 5-hydroxytryptamine receptor 1D (Homo sapiens) (P28221 whole entry): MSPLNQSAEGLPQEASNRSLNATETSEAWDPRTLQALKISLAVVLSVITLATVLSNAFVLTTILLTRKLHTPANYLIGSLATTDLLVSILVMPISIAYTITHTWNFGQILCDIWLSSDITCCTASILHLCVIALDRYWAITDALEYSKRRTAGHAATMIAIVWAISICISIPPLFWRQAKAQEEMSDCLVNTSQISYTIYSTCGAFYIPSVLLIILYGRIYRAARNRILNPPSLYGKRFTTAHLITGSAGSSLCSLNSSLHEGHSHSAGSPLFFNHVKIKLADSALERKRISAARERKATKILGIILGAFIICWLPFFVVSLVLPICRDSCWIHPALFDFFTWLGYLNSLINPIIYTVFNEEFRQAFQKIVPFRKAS
T3 sequence (P28222 whole entry): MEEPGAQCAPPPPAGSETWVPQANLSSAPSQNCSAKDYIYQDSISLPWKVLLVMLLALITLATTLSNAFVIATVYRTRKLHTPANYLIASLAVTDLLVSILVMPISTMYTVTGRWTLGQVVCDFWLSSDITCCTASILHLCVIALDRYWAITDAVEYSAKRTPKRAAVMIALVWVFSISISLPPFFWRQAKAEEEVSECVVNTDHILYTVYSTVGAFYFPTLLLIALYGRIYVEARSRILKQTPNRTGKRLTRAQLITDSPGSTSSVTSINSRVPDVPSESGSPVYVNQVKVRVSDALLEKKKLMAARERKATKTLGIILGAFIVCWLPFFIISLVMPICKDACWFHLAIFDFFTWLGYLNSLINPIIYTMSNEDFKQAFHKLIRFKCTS
Sequence of 5-hydroxytryptamine receptor 5A (Homo sapiens) (P47898 whole entry): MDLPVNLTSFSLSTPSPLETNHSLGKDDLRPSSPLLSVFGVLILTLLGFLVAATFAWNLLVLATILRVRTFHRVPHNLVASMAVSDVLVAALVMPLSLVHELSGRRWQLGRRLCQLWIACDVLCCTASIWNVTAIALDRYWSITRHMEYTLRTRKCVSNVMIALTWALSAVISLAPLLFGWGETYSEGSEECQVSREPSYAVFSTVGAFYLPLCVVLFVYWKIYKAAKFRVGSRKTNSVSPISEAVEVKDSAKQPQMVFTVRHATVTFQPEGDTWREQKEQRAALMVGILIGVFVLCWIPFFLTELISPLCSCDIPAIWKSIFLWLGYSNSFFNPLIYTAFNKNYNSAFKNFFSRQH
Sequence of 5-hydroxytryptamine receptor 2A (Homo sapiens) (P28223 whole entry): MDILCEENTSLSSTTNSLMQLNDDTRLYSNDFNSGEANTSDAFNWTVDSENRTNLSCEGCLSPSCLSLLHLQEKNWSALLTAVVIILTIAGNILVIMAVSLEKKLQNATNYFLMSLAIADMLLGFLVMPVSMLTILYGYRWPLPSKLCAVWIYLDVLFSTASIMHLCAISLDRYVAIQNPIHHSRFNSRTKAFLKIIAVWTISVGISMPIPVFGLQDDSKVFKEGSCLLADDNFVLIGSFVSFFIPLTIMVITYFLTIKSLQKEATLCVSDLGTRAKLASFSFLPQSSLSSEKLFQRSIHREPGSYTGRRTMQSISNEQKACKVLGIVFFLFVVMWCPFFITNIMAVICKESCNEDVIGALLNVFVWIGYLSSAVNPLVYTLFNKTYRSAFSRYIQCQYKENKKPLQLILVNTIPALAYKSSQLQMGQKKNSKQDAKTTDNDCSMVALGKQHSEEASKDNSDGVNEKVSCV
T1 sequence (P41595 whole entry): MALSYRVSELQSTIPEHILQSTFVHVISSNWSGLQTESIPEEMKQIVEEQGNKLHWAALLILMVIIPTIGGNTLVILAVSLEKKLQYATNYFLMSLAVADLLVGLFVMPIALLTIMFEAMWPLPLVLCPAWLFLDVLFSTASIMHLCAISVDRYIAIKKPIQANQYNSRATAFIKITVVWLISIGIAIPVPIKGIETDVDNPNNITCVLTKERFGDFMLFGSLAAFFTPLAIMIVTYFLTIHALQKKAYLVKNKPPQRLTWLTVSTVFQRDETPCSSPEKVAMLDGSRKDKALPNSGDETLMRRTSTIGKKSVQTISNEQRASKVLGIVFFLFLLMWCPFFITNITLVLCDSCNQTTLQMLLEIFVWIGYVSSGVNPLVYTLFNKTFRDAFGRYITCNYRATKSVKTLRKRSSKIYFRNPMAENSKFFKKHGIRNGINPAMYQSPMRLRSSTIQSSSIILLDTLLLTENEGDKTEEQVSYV
Sequence of 5-hydroxytryptamine receptor 7 (Homo sapiens) (P34969 whole entry): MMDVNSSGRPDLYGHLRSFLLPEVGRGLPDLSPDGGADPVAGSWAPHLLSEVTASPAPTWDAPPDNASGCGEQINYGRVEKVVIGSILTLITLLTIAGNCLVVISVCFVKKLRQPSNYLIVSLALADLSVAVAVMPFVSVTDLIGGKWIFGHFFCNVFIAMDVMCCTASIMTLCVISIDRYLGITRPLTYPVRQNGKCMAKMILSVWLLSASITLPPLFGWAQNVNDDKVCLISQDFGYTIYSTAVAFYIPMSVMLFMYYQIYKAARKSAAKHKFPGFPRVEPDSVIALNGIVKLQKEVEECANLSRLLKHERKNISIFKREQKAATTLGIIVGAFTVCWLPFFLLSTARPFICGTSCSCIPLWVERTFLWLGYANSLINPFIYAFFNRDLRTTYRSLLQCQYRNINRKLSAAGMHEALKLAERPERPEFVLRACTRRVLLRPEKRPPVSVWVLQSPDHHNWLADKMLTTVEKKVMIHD
Sequence of 5-hydroxytryptamine receptor 1E (Homo sapiens) (P28566 whole entry): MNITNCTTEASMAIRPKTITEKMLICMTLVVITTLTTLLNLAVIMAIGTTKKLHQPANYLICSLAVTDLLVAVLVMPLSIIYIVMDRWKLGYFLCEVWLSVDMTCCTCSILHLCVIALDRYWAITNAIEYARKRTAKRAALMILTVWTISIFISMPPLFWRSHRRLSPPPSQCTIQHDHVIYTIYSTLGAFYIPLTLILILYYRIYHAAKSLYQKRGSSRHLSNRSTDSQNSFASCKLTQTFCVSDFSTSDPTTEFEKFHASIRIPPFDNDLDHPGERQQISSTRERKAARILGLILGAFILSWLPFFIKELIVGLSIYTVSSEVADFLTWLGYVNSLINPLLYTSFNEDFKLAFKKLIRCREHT

Row | SMILES | inhibition [1] [%] | inhibition [2] [%] | inhibition [3] [%] | inhibition [4] [%] | inhibition [5] [%] | inhibition [6] [%] | Ki [7] [µM] | inhibition [8] [%] | inhibition [9] [%] | inhibition [10] [%] | Ki [11] [µM] | inhibition [12] [%]
1 | CCCCCCOc1c(OC)cc2c3c1-c1cc4c(cc1CC3N(C)CC2c1ccccc1)OCO4 (stereo not given) | 63.6 | 0.8 | -6.2 | 19.9 | 13.4 | 4.3 | 0.663 | 49.3 | 2.4 |  |  | 
2 | CCCOc1c(OC)cc2c3c1-c1cc4c(cc1CC3N(C)CC2c1ccccc1)OCO4 (stereo not given) | 84 | 0.7 | 5.2 | 32.3 | 22.4 | 51.7 | 0.307 | 13.1 | 2.1 | 8.6 | 1.61 | 27
3 | CCOc1c(OC)cc2c3c1-c1cc4c(cc1CC3N(C)CC2c1ccccc1)OCO4 (stereo not given) | 83.3 | -2.7 | -7.6 | 40.1 | 29.7 | 20.6 | 0.209 | 13.5 | 10.3 | 26 |  | -0.9
4 | COc1cc2c3c(c1O)-c1cc4c(cc1CC3N(C)CC2c1ccccc1)OCO4 (stereo not given) | 50.3 | 4.1 | 1.8 | 29.2 | 15.8 | -5.2 | 0.715 | -2.3 | 11 | 31.3 |  | 24.2
5 | COc1cc2c3c(c1OCC1CC1)-c1cc4c(cc1CC3N(C)CC2c1ccccc1)OCO4 (stereo not given) | 77.1 | 7.7 | 5.2 | 42.9 | 31.9 | 60.2 | 0.299 | 32.4 | 27.4 | 6.9 | 2.47 | -9.8
6 | COc1cc2c3c(c1OCc1ccc(Br)cc1)-c1cc4c(cc1CC3N(C)CC2c1ccccc1)OCO4 (stereo not given) | 24.4 | -7.4 | -9.3 | 15.8 | 9.8 | 2.1 |  | -6.6 | -0.1 |  |  | 25.9
7 | CCN1CC(c2ccccc2)c2cc(OC)c(OC)c3c2C1Cc1cc2c(cc1-3)OCO2 (stereo not given) | 88.4 | -4.1 |  | 12.8 | 27.4 | 23.6 | 0.419 | -1.6 | 5 | 8.9 |  | 3.3
8 | CCCCOc1c(OC)cc2c3c1-c1cc4c(cc1CC3N(C)CC2c1ccccc1)OCO4 (stereo not given) | 76.1 | 11.6 | 17.6 | 40.9 | 24 | 41.4 | 0.601 | 48 | 7.3 | -5.1 |  | 18.4
9 | COc1cc2c3c(c1OC)-c1cc4c(cc1CC3N(CC1CC1)CC2c1ccccc1)OCO4 (stereo not given) | 73.7 |  |  | 9.6 | 22.4 | 16.2 | 1.43 | 9.4 | 3.5 | 18.3 |  | 13.3
10 | C=CCOc1c(OC)cc2c3c1-c1cc4c(cc1CC3N(C)CC2c1ccccc1)OCO4 (stereo not given) | 72.1 | 8.3 | -9.8 | 47.8 | 22.6 | 19.4 | 0.416 | 28.8 | 3.3 | 24.7 |  | 19.2
